Test results published in patent US6737383B1, “Herbicidal oxadiazolidines” (priority 1999, dated 2004).

How the values were obtained:
pigweed = assay: Test B pre/postemergence pigweed; assay type: in vivo, Amaranthus retroflexus
Summary of the method: (§1)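 Response is a visual 0-to-10 score relative to untreated plants, where 0 means no effect and 10 means complete control, taken twelve to sixteen days after application. Treatments went onto soil at planting and onto foliage of 1- to 4-leaf plants, using a surfactant-containing non-phytotoxic solvent.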

soybean = assay: Test B pre/postemergence soybean; assay type: in vivo, Glycine max
Summary of the method: as §1

rape = assay: Test B pre/postemergence rape; assay type: in vivo, Brassica napus
Summary of the method: as §1

surinam grass = assay: Test B pre/postemergence surinam grass; assay type: in vivo, Brachiaria decumbens
Summary of the method: as §1

sugar beet = assay: Test B pre/postemergence sugar beet; assay type: in vivo, Beta vulgaris
Summary of the method: as §1

blackgrass = assay: Test B pre/postemergence blackgrass; assay type: in vivo, Alopecurus myosuroides
Summary of the method: as §1

bedstraw = assay: Test B pre/postemergence bedstraw; assay type: in vivo, Galium aparine
Summary of the method: as §1

giant foxtail = assay: Test B pre/postemergence giant foxtail; assay type: in vivo, Setaria faberii
Summary of the method: as §1

morningglory = assay: Test B pre/postemergence morningglory; assay type: in vivo, Ipomoea hederacea
Summary of the method: as §1

crabgrass = assay: Test B pre/postemergence crabgrass; assay type: in vivo, Digitaria sanguinalis
Summary of the method: as §1

purple nutsedge = assay: Test B pre/postemergence purple nutsedge; assay type: in vivo, Cyperus rotundus
Summary of the method: as §1

corn = assay: Test B pre/postemergence corn; assay type: in vivo, Zea mays
Summary of the method: as §1

velvetleaf = assay: Test B pre/postemergence velvetleaf; assay type: in vivo, Abutilon theophrasti
Summary of the method: as §1

wild oat = assay: Test B pre/postemergence wild oat; assay type: in vivo, Avena fatua
Summary of the method: as §1

cocklebur = assay: Test B pre/postemergence cocklebur; assay type: in vivo, Xanthium strumarium
Summary of the method: as §1

wheat = assay: Test B pre/postemergence wheat; assay type: in vivo, Triticum aestivum
Summary of the method: as §1

[1] = Postemergence, Rate 62 g/ha, scale 0 to 10, 0 is no effect, 10 is complete control
[2] = Postemergence, Rate 125 g/ha, scale of 0 to 10 where 0 is no effect and 10 is complete control
[3] = Preemergence, Rate 125 g/ha, scale of 0 to 10 where 0 is no effect and 10 is complete control
[4] = Preemergence, Rate 250 g/ha, scale 0 (no effect) to 10 (complete control)
[5] = Rate 62 g/ha, Preemergence, scale 0 to 10
[6] = Rate 250 g/ha, Postemergence, scale 0 to 10, 0 is no effect, 10 is complete control
[7] = Rate 500 g/ha, Postemergence, scale 0 to 10, 0 is no effect, 10 is complete control
[8] = Rate 500 g/ha, Preemergence, scale 0 to 10 (0 no effect, 10 complete control)

Cc1nc(C(C)n2c(=O)on(C(=O)N(c3ccc(F)cc3)C(C)C)c2=O)sc1C (stereo not shown) [Compound 757]
0: Plant response rating, Redroot pigweed (pigweed; [3]) | Redroot pigweed plant response rating (pigweed; [5]) | Plant response rating, Soybean (soybean; [3]) | Soybean plant response rating (soybean; [4]) | Soybean plant response rating (soybean; [5]) | Soybean plant response rating (soybean; [8]) | Plant response rating, Rape (rape; [1]) | Rape plant response rating (rape; [2]) | Plant response rating, Rape (rape; [3]) | Rape plant response rating (rape; [4]) | Rape plant response rating (rape; [5]) | Rape plant response rating (rape; [6]) | Rape plant response rating (rape; [7]) | Rape plant response rating (rape; [8]) | Plant response rating, B. signalgrass (surinam grass; [1]) | B. signalgrass plant response rating (surinam grass; [2]) | B. signalgrass plant response rating (surinam grass; Preemergence, Rate 62 g/ha, scale of 0 to 10 where 0 is no effect and 10 is complete control) | Plant response rating, B. signalgrass (surinam grass; [3]) | B. signalgrass plant response rating (surinam grass; [6]) | Plant response rating, Sugarbeets (sugar beet; [1]) | Plant response rating, Sugarbeets (sugar beet; [3]) | Sugarbeets plant response rating (sugar beet; [4]) | Sugarbeets plant response rating (sugar beet; [5]) | Sugarbeets plant response rating (sugar beet; [8]) | Plant response rating, Blackgrass (blackgrass; [1]) | Blackgrass plant response rating (blackgrass; [2]) | Bedstraw plant response rating (bedstraw; [2]) | Plant response rating, Bedstraw (bedstraw; [3]) | Bedstraw plant response rating (bedstraw; [4]) | Bedstraw plant response rating (bedstraw; [5]) | Bedstraw plant response rating (bedstraw; [6]) | Bedstraw plant response rating (bedstraw; [8]) | Plant response rating, Morningglory (morningglory; [3]) | Morningglory plant response rating (morningglory; [4]) | Morningglory plant response rating (morningglory; [5]) | Morningglory plant response rating (morningglory; [8]) | Plant response rating, Nutsedge (purple nutsedge; [1]) | Nutsedge plant response rating (purple nutsedge; [2]) | Plant response rating, Nutsedge (purple nutsedge; [3]) | Nutsedge plant response rating (purple nutsedge; [4]) | Nutsedge plant response rating (purple nutsedge; [5]) | Nutsedge plant response rating (purple nutsedge; [6]) | Nutsedge plant response rating (purple nutsedge; [7]) | Nutsedge plant response rating (purple nutsedge; [8]) | Plant response rating, Corn (corn; [1]) | Corn plant response rating (corn; [2]) | Plant response rating, Corn (corn; [3]) | Corn plant response rating (corn; [4]) | Corn plant response rating (corn; [5]) | Corn plant response rating (corn; [6]) | Corn plant response rating (corn; [7]) | Corn plant response rating (corn; [8]) | Plant response rating, Velvetleaf (velvetleaf; [1]) | Plant response rating, Velvetleaf (velvetleaf; [3]) | Velvetleaf plant response rating (velvetleaf; [4]) | Velvetleaf plant response rating (velvetleaf; [5]) | Velvetleaf plant response rating (velvetleaf; [8]) | Plant response rating, Wild oats (wild oat; [1]) | Plant response rating, Wild oats (wild oat; [3]) | Wild oats plant response rating (wild oat; [5]) | Wild oats plant response rating (wild oat; [6]) | Wild oats plant response rating (wild oat; [7]) | Plant response rating, Cocklebur (cocklebur; [1]) | Cocklebur plant response rating (cocklebur; [2]) | Plant response rating, Cocklebur (cocklebur; [3]) | Cocklebur plant response rating (cocklebur; [4]) | Cocklebur plant response rating (cocklebur; [5]) | Cocklebur plant response rating (cocklebur; [8]) | Plant response rating, Wheat (wheat; [1]) | Plant response rating, Wheat (wheat; [3]) | Wheat plant response rating (wheat; [4]) | Wheat plant response rating (wheat; [5]) | Wheat plant response rating (wheat; [6]) | Wheat plant response rating (wheat; [7])
3: Redroot pigweed plant response rating (pigweed; [2]) | Redroot pigweed plant response rating (pigweed; [8]) | Plant response rating, Soybean (soybean; [1]) | Sugarbeets plant response rating (sugar beet; [6]) | Sugarbeets plant response rating (sugar beet; [7]) | Blackgrass plant response rating (blackgrass; [4]) | Blackgrass plant response rating (blackgrass; [6]) | Plant response rating, Crabgrass (crabgrass; [1]) | Velvetleaf plant response rating (velvetleaf; [6]) | Wheat plant response rating (wheat; [8])
9: Plant response rating, Giant foxtail (giant foxtail; [3]) | Giant foxtail plant response rating (giant foxtail; [4]) | Giant foxtail plant response rating (giant foxtail; [5]) | Giant foxtail plant response rating (giant foxtail; [8]) | Morningglory plant response rating (morningglory; [7]) | Plant response rating, Crabgrass (crabgrass; [3]) | Crabgrass plant response rating (crabgrass; [4]) | Crabgrass plant response rating (crabgrass; [8])
7: Redroot pigweed plant response rating (pigweed; [7]) | B. signalgrass plant response rating (surinam grass; [8]) | Blackgrass plant response rating (blackgrass; [8]) | Giant foxtail plant response rating (giant foxtail; [7]) | Morningglory plant response rating (morningglory; [6])
4: Soybean plant response rating (soybean; [6]) | Soybean plant response rating (soybean; [7]) | Blackgrass plant response rating (blackgrass; [7]) | Crabgrass plant response rating (crabgrass; [2]) | Velvetleaf plant response rating (velvetleaf; [7])
5: Redroot pigweed plant response rating (pigweed; [6]) | Giant foxtail plant response rating (giant foxtail; [6]) | Wild oats plant response rating (wild oat; [8])
6: Plant response rating, Morningglory (morningglory; [1]) | Morningglory plant response rating (morningglory; [2]) | Crabgrass plant response rating (crabgrass; [5]) | Crabgrass plant response rating (crabgrass; [6]) | Crabgrass plant response rating (crabgrass; [7])
1: Plant response rating, Redroot pigweed (pigweed; [1]) | B. signalgrass plant response rating (surinam grass; [7]) | Blackgrass plant response rating (blackgrass; [5])
2: Redroot pigweed plant response rating (pigweed; [4]) | B. signalgrass plant response rating (surinam grass; [4]) | Plant response rating, Blackgrass (blackgrass; [3]) | Plant response rating, Giant foxtail (giant foxtail; [1]) | Giant foxtail plant response rating (giant foxtail; [2]) | Wild oats plant response rating (wild oat; [4]) | Cocklebur plant response rating (cocklebur; [6]) | Cocklebur plant response rating (cocklebur; [7])
